Where a name gives a salt, the structure may show the parent alone. Blank lines part the entries; values can stand above or below the compound they belong to.
Legend:
interferon (α) = assay: Cytokine Induction in Human Cells: interferon (α) secreted by PBMCs, ELISA; format: cell-based; design: key to Lowest Effective Concentration (μM) Interferon: A “*” indicates that no induction was seen at any of the tested concentrations; generally the highest tested concentration was 10 or 30 μM; settings: incubated 18 to 24 hours, lowest concentration found to induce interferon; for minimal effective concentration: PBMC
From the text: (§1) An in vitro human blood cell system is used to assess cytokine induction. Activity is based on the measurement of interferon and tumor necrosis factor (α) (IFN and TNF, respectively) secreted into culture media as described by Testerman et. al. In “Cytokine Induction by the Immunomodulators Imiquimod and S-27609”, Journal of Leukocyte Biology, 58, 365-372 (September, 1995).
(§2) Whole blood from healthy human donors is collected by venipuncture into EDTA vacutainer tubes. Peripheral blood mononuclear cells (PBMCs) are separated from whole blood by density gradient centrifugation using Histopaque®-1077. The PBMCs are washed twice with Hank's Balanced Salts Solution and then are suspended at 3-4×10^6 cells/mL in RPMI complete. The PBMC suspension is added to 48 well flat bottom sterile tissue culture plates (Costar, Cambridge, Mass. or Becton Dickinson Labware, Lincoln Park, N.J.) containing an equal volume of RPMI complete media containing test compound.
(§3) The compounds are solubilized in dimethyl sulfoxide (DMSO). The DMSO concentration should not exceed a final concentration of 1% for addition to the culture wells
(§4) The solution of test compound is added at 60 μM to the first well containing RPMI complete and serial 3 fold dilutions are made in the wells. The PBMC suspension is then added to the wells in an equal volume, bringing the test compound concentrations to the desired range (0.12 to 30 μM). The final concentration of PBMC suspension is 1.5-2×10^6 cells/mL. The plates are covered with sterile plastic lids, mixed gently and then incubated for 18 to 24 hours at 37° C. in a 5% carbon dioxide atmosphere.
(§5) Following incubation the plates are centrifuged for 5-10 minutes at 1000 rpm (˜200×g) at 4° C. The cell-free culture supernatant is removed with a sterile polypropylene pipet and transferred to sterile polypropylene tubes. Samples are maintained at −30 to −70° C. until analysis. The samples are analyzed for interferon (α) and for tumor necrosis factor (α) by ELISA.
Interferon (α) concentration is determined by ELISA using a Human Multi-Species kit from PBL Biomedical Laboratories, New Brunswick, N.J. Results are expressed in pg/mL.
(§6) The table below lists the lowest concentration found to induce interferon and the lowest concentration found to induce tumor necrosis factor for each compound.

[1] = test system: tumor necrosis factor (α); assay: Cytokine Induction in Human Cells: tumor necrosis factor (α) secreted by PBMCs, ELISA; format: cell-based; design: key to Lowest Effective Concentration (μM) Tumor Necrosis Factor: A “*” indicates that no induction was seen at any of the tested concentrations; generally the highest tested concentration was 10 or 30 μM; settings: incubated 18 to 24 hours, lowest concentration found to induce tumor necrosis factor; for minimal effective concentration: PBMC
From the text: as §1, §2, §3, §4, §5
Tumor necrosis factor (α) (TNF)concentration is determined using ELISA kits available from Genzyme, Cambridge, Mass.; R&D Systems, Minneapolis, Minn.; or Pharmingen, San Diego, Calif. Results are expressed in pg/mL.
as §6

- melting point: 209 to 211 °C
Structure (SMILES): Nc1nc2ccccc2c2c1ncn2CCOCc1cn(Cc2ccccc2)nn1 (as salt: hydrochloride) [Example 10, 1-{2-[(1-Benzyl-1H-1,2,3-triazol-4-yl)methoxy]ethyl}-1H-imidazo[4,5-c]quinoline-4-amine hydrochloride]

- melting point: 229 to 231 °C
Structure (SMILES): Nc1nc2ccccc2c2c1ncn2CCOCc1cccnc1 (as salt: hydrochloride) [Example 13, 1-[2-(Pyridin-3-ylmethoxy)ethyl]-1H-imidazo[4,5-c]quinolin-4-amine Hydrochloride]

- melting point: 214 to 215 °C
Structure (SMILES): Nc1nc2ccccc2c2c1ncn2CCOCC#Cc1ncccn1 (as salt: trifluoroacetate) [Example 17, 1-(2-{[3-(Pyrimidin-2-yl)-2-propynyl]oxy}ethyl)-1H-imidazo[4,5-c]quinolin-4-amine trifluoroacetate]

- melting point: 135 °C (dec.)
Structure (SMILES): Nc1nc2ccccc2c2c1ncn2CCOCC#Cc1ccncc1 (as salt: trifluoroacetate) [Example 18, 1-(2-{[3-(Pyrid-4-yl)-2-propynyl]oxy}ethyl)-1H-imidazo[4,5-c]quinolin-4-amine bis(trifluoroacetate)]

- melting point: 160 to 162 °C
Structure (SMILES): Nc1nc2ccccc2c2c1ncn2CCOCC#Cc1ccoc1 (as salt: trifluoroacetate) [Example 19, 1-(2-{[3-(Fur-3-yl)-2-propynyl]oxy}ethyl)-1H-imidazo[4,5-c]quinolin-4-amine trifluoroacetate]

- melting point: 129 to 131 °C
Structure (SMILES): Nc1nc2ccccc2c2c1ncn2CCOCC#Cc1ccccn1 (as salt: trifluoroacetate) [Example 21, 1-(2-{[3-(Pyrid-2-yl)-2-propynyl]oxy}ethyl)-1H-imidazo[4,5-c]quinolin-4-amine trifluoroacetate]

Structure (SMILES): Nc1nc2ccccc2c2c1ncn2CCOCC#Cc1cncc2ccccc12 [Example 1, 1-(2-{[3-(Isoquinolin-4-yl)-2-propynyl]oxy}ethyl)-1H-imidazo[4,5-c]quinolin-4-amine]
- minimal effective concentration (interferon (α)): 0.12 µM
- minimal effective concentration [1]: 3.33 µM

Structure (SMILES): Nc1nc2ccccc2c2c1ncn2CCOCCCc1cn[nH]c1 [Example 3, 1-{2-[3-(1H-Pyrazol-4-yl)propoxy]ethyl}-1H-imidazo[4,5-c]quinolin-4-amine]
- minimal effective concentration (interferon (α)): 0.04 µM
- Lowest Effective Concentration (μM) Tumor Necrosis Factor [1]: *

Structure (SMILES): Nc1nc2ccccc2c2c1ncn2CCOCCCc1cccnc1 [Example 8, 1-[2-(3-Pyridin-3-ylpropoxy)ethyl]-1H-imidazo[4,5-c]quinolin-4-amine Bis(trifluoroacetate)]
- minimal effective concentration (interferon (α)): 0.04 µM
- minimal effective concentration [1]: 0.12 µM

Structure (SMILES): Nc1nc2ccccc2c2c1ncn2CCOCCCc1cncnc1 [Example 9, 1-[2-(3-Pyrimidin-5-ylpropoxy)ethyl]-1H-imidazo[4,5-c]quinolin-4-amine]
- minimal effective concentration (interferon (α)): 0.12 µM
- minimal effective concentration [1]: 3.33 µM

Structure (SMILES): Nc1nc2ccccc2c2c1ncn2CCOCc1cn(Cc2ccccc2)nn1 [Example 10, 1-{2-[(1-Benzyl-1H-1,2,3-triazol-4-yl)methoxy]ethyl}-1H-imidazo[4,5-c]quinoline-4-amine hydrochloride]
- minimal effective concentration (interferon (α)): 1.11 µM
- minimal effective concentration [1]: 1.11 µM

Structure (SMILES): Nc1nc2ccccc2c2c1ncn2CCOCc1cc2ccccc2o1 [Example 12, 1-[2-(Benzo[b]furan-2-ylmethoxy)ethyl]-1H-imidazo[4,5-c]quinolin-4-amine]
- minimal effective concentration (interferon (α)): 1.11 µM
- Lowest Effective Concentration (μM) Tumor Necrosis Factor [1]: *

Structure (SMILES): Nc1nc2ccccc2c2c1ncn2CCOCc1cccnc1 [Example 13, 1-[2-(Pyridin-3-ylmethoxy)ethyl]-1H-imidazo[4,5-c]quinolin-4-amine Hydrochloride]
- minimal effective concentration (interferon (α)): 0.37 µM
- minimal effective concentration [1]: 1.11 µM

Structure (SMILES): Nc1nc2ccccc2c2c1ncn2CCOCC#Cc1ncccn1 [Example 17, 1-(2-{[3-(Pyrimidin-2-yl)-2-propynyl]oxy}ethyl)-1H-imidazo[4,5-c]quinolin-4-amine trifluoroacetate]
- minimal effective concentration (interferon (α)): 0.37 µM
- minimal effective concentration [1]: 0.37 µM

Structure (SMILES): Nc1nc2ccccc2c2c1ncn2CCOCC#Cc1ccncc1 [Example 18, 1-(2-{[3-(Pyrid-4-yl)-2-propynyl]oxy}ethyl)-1H-imidazo[4,5-c]quinolin-4-amine bis(trifluoroacetate)]
- minimal effective concentration (interferon (α)): 0.37 µM
- minimal effective concentration [1]: 10 µM

Structure (SMILES): Nc1nc2ccccc2c2c1ncn2CCOCC#Cc1ccoc1 [Example 19, 1-(2-{[3-(Fur-3-yl)-2-propynyl]oxy}ethyl)-1H-imidazo[4,5-c]quinolin-4-amine trifluoroacetate]
- minimal effective concentration (interferon (α)): 0.12 µM
- minimal effective concentration [1]: 3.33 µM

Structure (SMILES): Nc1nc2ccccc2c2c1ncn2CCOCC#Cc1csc(C=O)c1 [Example 20, 4-{3-[2-(4-Amino-1H-imidazo[4,5-c]quinolin-1-yl)ethoxy]-propyn-1-yl}thiophen-2-ylcarboxaldehyde trifluoroacetate]
- minimal effective concentration (interferon (α)): 0.12 µM
- minimal effective concentration [1]: 3.33 µM

Structure (SMILES): Nc1nc2ccccc2c2c1ncn2CCOCC#Cc1ccccn1 [Example 21, 1-(2-{[3-(Pyrid-2-yl)-2-propynyl]oxy}ethyl)-1H-imidazo[4,5-c]quinolin-4-amine trifluoroacetate]
- minimal effective concentration (interferon (α)): 1.11 µM
- minimal effective concentration [1]: 10 µM

Structure (SMILES): CC(Cn1cnc2c(N)nc3ccccc3c21)OCC1CCCO1 (centres unmarked) [Example 22]
- minimal effective concentration (interferon (α)): 1.11 µM
- minimal effective concentration [1]: 10 µM

Structure (SMILES): CC(C)C(COc1ncccc1[N+](=O)[O-])n1cnc2c(N)nc3ccccc3c21 (centres unmarked) [Example 23]
- minimal effective concentration (interferon (α)): 1.11 µM
- Lowest Effective Concentration (μM) Tumor Necrosis Factor [1]: *

Structure (SMILES): CC(C)C(COCc1csc2ccc(Cl)cc12)n1cnc2c(N)nc3ccccc3c21 (centres unmarked) [Example 24]
- Lowest Effective Concentration (μM) Interferon (interferon (α)): *
- Lowest Effective Concentration (μM) Tumor Necrosis Factor [1]: *

Structure (SMILES): CC(Cn1cnc2c(N)nc3ccccc3c21)OCc1csc2ccc(Cl)cc12 (centres unmarked) [Example 25]
- minimal effective concentration (interferon (α)): 10 µM
- Lowest Effective Concentration (μM) Tumor Necrosis Factor [1]: *

Structure (SMILES): CC(Cn1cnc2c(N)nc3ccccc3c21)Oc1ncccc1[N+](=O)[O-] (centres unmarked) [Example 26]
- minimal effective concentration (interferon (α)): 1.11 µM
- Lowest Effective Concentration (μM) Tumor Necrosis Factor [1]: *

Structure (SMILES): CC(C)C(COc1ccccn1)n1cnc2c(N)nc3ccccc3c21 (centres unmarked) [Example 27, 1-{2-Methyl-1-[(pyrid-2-yloxy)methyl]propyl}-1H-imidazo[4,5-c]quinoline-4-amine trifluoroacetate]
- minimal effective concentration (interferon (α)): 1.11 µM
- Lowest Effective Concentration (μM) Tumor Necrosis Factor [1]: *

Structure (SMILES): CC(Cn1cnc2c(N)nc3ccccc3c21)Oc1ccc2[nH]c3ccccc3c2c1 (centres unmarked) [Example 29, 1-[2-(9H-carbazol-3-yloxy)propyl]-1H-imidazo[4,5-c]quinolin-4-amine trifluoroacetate]
- minimal effective concentration (interferon (α)): 1.11 µM
- Lowest Effective Concentration (μM) Tumor Necrosis Factor [1]: *

Structure (SMILES): CCCCc1nc2c(N)nc3ccccc3c2n1CCOCCCc1cccnc1 [Example 35, 2-Butyl-1-[2-(3-pyridin-3-ylpropoxy)ethyl]-1H-imidazo[4,5-c]quinoline-4-amine]
- minimal effective concentration (interferon (α)): 0.01 µM
- minimal effective concentration [1]: 0.12 µM

- melting point: 140 to 141 °C
Structure (SMILES): Cc1nc2c(N)nc3c(c2n1CCOCCCc1cccnc1)CCCC3 [Example 37, 2-methyl-1-[2-(3-pyridin-3-ylpropoxy)ethyl]-6,7,8,9-tetrahydro-1H-imidazo[4,5-c]quinolin-4-amine]

Source: patent publication US6664260B2, “Heterocyclic ether substituted imidazoquinolines” (3M Innovative Properties Company, priority 2000, dated 2003)
